Data from the supplement of paper PMC12137928.
Structures can show the parent of a compound that is named as a salt.

Tested on: HCT116
Conditions: 72 h
Procedure, shortened: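 HCT116 cells were seeded at 250 per well in 1536-well plates and left 5 h to attach. CellTiter-Glo luminescence was scaled to vehicle (0%) and positive control (-100%), then pattern-corrected. IC50 and maximal efficacy came from four-parameter Hill fits.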

Row | IC50 cell viability (ICRF193 0 nM) [µM] | IC50 cell viability (ICRF193 200 nM) [µM] | SMILES
1 | > 45.8 | > 45.8 | CN1[C@@H]2CC[C@H]1C[C@@H](OC(c1ccccc1)c1ccccc1)C2 [Benztropine mesylate]
2 | > 45.8 | > 45.8 | CCCCCCCN(CC)CCCC(O)c1ccc(NS(C)(=O)=O)cc1 (stereo not drawn) [Ibutilide fumarate]
3 | > 45.8 | > 45.8 | C=CCNC(N)=S [Allylthiourea]
4 | > 45.8 | > 45.8 | CCOC(=O)CCC(=O)O[C@H]1[C@H](O[C@@H]2[C@@H](C)[C@H](O[C@H]3C[C@@](C)(OC)[C@@H](O)[C@H](C)O3)[C@@H](C)C(=O)O[C@H](CC)[C@@](C)(O)[C@H](O)[C@@H](C)C(=O)[C@H](C)C[C@@]2(C)O)O[C@H](C)C[C@@H]1N(C)C [ERYTHROMYCIN ETHYLSUCCINATE]
5 | > 45.8 | > 45.8 | COC(=O)c1ccccc1O [Methyl salicylate]
6 | > 45.8 | > 45.8 | Cc1cc(C)c(NC(=O)CN(CC(=O)O)CC(=O)O)c(C)c1Br [Mebrofenin]
7 | > 45.8 | > 45.8 | CCOC(=O)Oc1ccc(CCNC(=O)[C@H](CCSC)NC(C)=O)cc1OC(=O)OCC [Docarpamine]
8 | > 45.8 | > 45.8 | OCC(CO)N[C@H]1C[C@](O)(CO)[C@@H](O)[C@H](O)[C@H]1O [Voglibose]
9 | > 45.8 | > 45.8 | O=C(O)CCCC[C@@H]1SC[C@@H]2NC(=O)N[C@@H]21 [Biotin]
10 | > 45.8 | > 45.8 | Cc1ccc(/C(=C\CN2CCCC2)c2cccc(/C=C/C(=O)O)n2)cc1 [Acrivastine]
11 | > 45.8 | > 45.8 | COc1ccc(C2CNC(=O)C2)cc1OC1CCCC1 (stereo not drawn) [Rolipram]
12 | > 45.8 | > 45.8 | CCCCCCO[C@@H](C)c1cccc(-c2csc(NC(=O)c3cc(Cl)c(/C=C(\C)C(=O)O)c(Cl)c3)n2)c1OC [Lusutrombopag]
13 | > 45.8 | > 45.8 | CC(C)Cc1ccc(C(C)C(=O)O)cc1 (stereo not drawn) [Ibuprofen lysine]
14 | > 45.8 | > 45.8 | Cc1cc(O)c(C(=O)N[C@@H](C(=O)N[C@@H]2C(=O)N3C(C(=O)O)=C(CSc4nnnn4C)CS[C@H]23)c2ccc(O)cc2)cn1 [Cefpiramide (sodium)]
15 | > 45.8 | > 45.8 | O=c1[nH]cnc2c1ncn2[C@H]1CC[C@@H](CO)O1 [2',3'-Dideoxyinosine]
16 | > 45.8 | > 45.8 | C=CC[N@@+]12CC[C@@]34c5ccccc5N5/C=C6/[C@H]7C[C@H]8[C@@]9(CC[N@@+]8(CC=C)C/C7=C/CO)c7ccccc7N(/C=C(/[C@@H](C[C@@H]31)/C(=C\CO)C2)[C@H]54)[C@@H]69 [Alcuronium chloride]
17 | > 45.8 | > 45.8 | Cc1[nH]c(=O)c(C#N)cc1-c1ccc2nccn2c1 [Olprinone]
18 | > 45.8 | > 45.8 | COc1ccc(/C=C/C(=O)Nc2ccccc2C(=O)O)cc1OC [Tranilast]
19 | > 45.8 | > 45.8 | CC[C@H]1OC(=O)[C@H](C)C(=O)[C@H](C)[C@@H](O[C@@H]2O[C@H](C)C[C@H](N(C)C)[C@H]2O)[C@](C)(OC)C[C@@H](C)C(=O)[C@H](C)[C@H]2N(CCCCn3cnc(-c4cccnc4)c3)C(=O)O[C@]12C [TELITHROMYCIN]

Row | SMILES | IC50 cell viability (ICRF193 0 nM) [µM] | IC50 cell viability (ICRF193 200 nM) [µM]
20 | CCCC(=O)OC(C(Cl)(Cl)Cl)P(=O)(OC)OC (stereo not drawn) [Butonate] | > 45.8 | > 45.8
21 | C=CCC1(C(C)CC)C(=O)NC(=O)NC1=O (stereo not drawn) [Talbutal] | > 45.8 | > 45.8
22 | CC(C)C(Br)C(=O)NC(N)=O (stereo not drawn) [Bromisovalum] | > 45.8 | > 45.8
23 | Cn1c(CCCC(=O)O)nc2cc(N(CCCl)CCCl)ccc21 [Bendamustine] | > 45.8 | > 45.8
24 | COc1ccc(OC)c(C(O)C(C)N)c1 (stereo not drawn) [Methoxamine hydrochloride] | > 45.8 | > 45.8
